≈ marks a conversion by molar mass, not a printed value. Read-outs that look alike come from different tables or passages of the source.
How the values were obtained:
Type in all cases: cell-based
[1] = system: Methicillin Resistant Staphylococcus aureus strain USA 300, NRS384; test: Minimum inhibitory concentration, broth micro-dilution (CLSI), S. aureus; conditions: 35° C., 22 hours; for MIC: Staphylococcus aureus, MRSA / NRS 384 / USA300, 22 h
Method: (§1) In vitro antimicrobial activity of each compound was determined by measuring minimal inhibitor concentrations (MICs) using the broth micro-dilution technique as approved by the Clinical and Laboratory Standards Institute (CLSI) (Methods for Dilution Antimicrobial Susceptibility Tests for Bacteria that Grow Aerobically; Approved Standard—Eighth Edition. CLSI document M07-A8. Wayne, Pa.: Clinical and Laboratory Standards; 2009). Antibacterial activity was measure against three strains of bacteria: a Methicillin Resistant Staphylococcus aureus strain USA 300, NRS384 (S. aureus); a strain of Escherichia coli MC4100 harboring the IMP4213 (E. coli IMP), which results in increased outer-membrane permeability (B Martin and Silhavy T. Imp/OstA is required for cell envelope biogenesis in Escherichia coli. (2002) Molecular Microbiology, 45(5), 1289-1302), and Escherichia coli ATCC 25922 (E. coli), a clinically relevant Gram-negative strain. Cells were inoculated onto plates of Trypyticase Soy Agar or Luria Agar respectively and grown at 35° C. for 20 hours. Inocula suspensions were prepared by scraping cells into 1 mL of testing media (cation adjusted Mueller Hinton Broth supplemented with 0.002% v/v Tween-80) and diluting to a final OD600 nm of 0.01.
(§2) Test compounds were prepared in DMSO at a concentration of 10 mg/mL. […] In protocol 2, the compound stocks were diluted into testing media at a concentration of 4 μg/mL and serial 2-fold dilutions were made in the same media, in 96-well U bottom microtiter dishes, for a total of 10 compound concentrations. In protocol 3, compound stocks were diluted into testing media at a concentration of 0.5 μg/mL, with serial 2-fold dilutions conducted as described above. […] Inocula suspensions were added to the 2-fold serial dilutions of test compounds to a final density of OD OD600 nm of 0.0005 and incubated at 35° C. for 22 hours.

[2] = system: Escherichia coli MC4100 harboring the IMP4213 (E. coli IMP); test: microbe, parasite or virus in culture; conditions: 35° C., 22 hours; for MIC: Escherichia coli, 22 h, read-out: MIC (μg/mL) E. coli IMP, E. coli MC4100 IMP4213, increased outer-membrane permeability; for MIC (μg/mL) E. coli IMP: E. coli MC4100 IMP4213, increased outer-membrane permeability
Method: as §1, §2

[3] = system: Escherichia coli ATCC 25922; test: Minimum inhibitory concentration, broth micro-dilution (CLSI), E. coli; conditions: 35° C., 22 hours; for MIC: Escherichia coli, ATCC25922, 22 h
Method: Cells were inoculated onto plates of Trypyticase Soy Agar or Luria Agar respectively and grown at 35° C. for 20 hours. Inocula suspensions were prepared by scraping cells into 1 mL of testing media (cation adjusted Mueller Hinton Broth supplemented with 0.002% v/v Tween-80) and diluting to a final OD600 nm of 0.01.
as §2

[4] = MRSA USA 300 NRS384, read-out: MIC (μg/mL) S. aureus
[5] = E. coli ATCC 25922, read-out: MIC (μg/mL) E. coli
[6] = read-out: MIC (μg/mL) S. aureus, MRSA USA 300 NRS384
[7] = read-out: MIC (μg/mL) E. coli, E. coli ATCC 25922

| SMILES | MIC [1, 4] [µg/mL] | MIC [2] [µg/mL] | MIC [3, 5] [µg/mL] | MIC (μg/mL) S. aureus ([1]; MRSA USA 300 NRS384) [µg/mL] | MIC (μg/mL) E. coli IMP [2] [µg/mL] | MIC (μg/mL) E. coli ([3]; E. coli ATCC 25922) [µg/mL] | MIC [1, 6] [µg/mL] | MIC [3, 7] [µg/mL] |
| --- | --- | --- | --- | --- | --- | --- | --- | --- |
| CCCCCCCCCCCC(=O)N[C@@H](CCC#N)C(=O)N(C)[C@@H]1C(=O)N[C@@H](C)C(=O)N[C@H](C(=O)NCC#N)Cc2ccc(OCCN)c(c2)-c2cc1ccc2OCCN [Compound 455] | 0.5 (≈ 0.602 µM) | 0.5 (≈ 0.602 µM) | 32 (≈ 38.6 µM) |  |  |  |  |  |
| Cc1cc(C2(C)CC2)ccc1C(=O)N[C@@H](CCN)C(=O)N(C)[C@@H]1C(=O)N[C@@H](C)C(=O)N[C@H](C(=O)NCC#N)Cc2ccc(OCCN)c(c2)-c2cc1ccc2OCCN [Compound 435] | 0.5 (≈ 0.617 µM) | 0.063 (≈ 0.0778 µM) | 4 (≈ 4.94 µM) |  |  |  |  |  |
| CCCCCCCCCCCNC(=O)C(CCN)C(=O)N(C)[C@@H]1C(=O)N[C@@H](C)C(=O)N[C@H](C(=O)NCC#N)Cc2ccc(OCCN)c(c2)-c2cc1ccc2OCCN (single isomer, unassigned) [Compound 497-P1] |  |  |  | 0.063 (≈ 0.0768 µM) | 0.016 (≈ 0.0195 µM) | 2 (≈ 2.44 µM) |  |  |
| C[C@@H]1NC(=O)[C@@H](N(C)C(=O)[C@H](CCN)NC(=O)c2ccc(OCC(C)(C)C)cc2Cl)c2ccc(OCCN)c(c2)-c2cc(ccc2OCCN)C[C@@H](C(=O)NCC#N)NC1=O [Compound 279] | 0.13 (≈ 0.151 µM) | 0.02 (≈ 0.0232 µM) | 0.5 (≈ 0.58 µM) |  |  |  |  |  |
| CCCCCCCCCCCC(=O)N[C@@H](CC(=O)O)C(=O)N[C@@H](CN)C(=O)N(C)[C@@H]1C(=O)N[C@@H](C)C(=O)N[C@H](C(=O)NCC#N)Cc2ccc(OCCN)c(c2)-c2cc1ccc2OCCN [Compound 387] |  | 0.38 (≈ 0.413 µM) |  |  |  |  | 0.25 (≈ 0.271 µM) | 64 (≈ 69.5 µM) |
| CCCCCCCCCCCNC(=O)C(CCN)C(=O)N(C)[C@@H]1C(=O)N[C@@H](C)C(=O)N[C@H](C(=O)NCC#N)Cc2ccc(OCCN)c(c2)-c2cc1ccc2OCCN (single isomer, unassigned) [Compound 497-P2] |  |  |  | 1 (≈ 1.22 µM) | 0.38 (≈ 0.463 µM) | 24 (≈ 29.3 µM) |  |  |
| Cc1cc(-c2ccc(CC(C)C)nc2)ccc1C(=O)N[C@@H](CCN)C(=O)N(C)[C@@H]1C(=O)N[C@@H](C)C(=O)N[C@H](C(=O)NCC#N)Cc2ccc(OCCN)c(c2)-c2cc1ccc2OCCN [Compound 181] | 0.13 (≈ 0.146 µM) | 0.031 (≈ 0.0349 µM) | 2 (≈ 2.25 µM) |  |  |  |  |  |
| CCCCCCCCc1ccc(C(=O)N[C@@H](CCC(N)=O)C(=O)N(C)[C@@H]2C(=O)N[C@@H](C)C(=O)N[C@H](C(=O)NCC#N)Cc3ccc(OCCN)c(c3)-c3cc2ccc3OCCN)c(C)c1 [Compound 247] | 0.094 (≈ 0.105 µM) | 0.094 (≈ 0.105 µM) | 2 (≈ 2.23 µM) |  |  |  |  |  |
| CCCCCCc1ccc(C(=O)N[C@@H](CCNC(=N)N)C(=O)N(C)[C@@H]2C(=O)N[C@@H](C)C(=O)N[C@H](C(=O)NCC#N)Cc3ccc(OCCN)c(c3)-c3cc2ccc3OCCN)c(C)c1 [Compound 485] | 0.063 (≈ 0.0714 µM) | 0.031 (≈ 0.0351 µM) | 2 (≈ 2.27 µM) |  |  |  |  |  |
| CCCCCCCCCCN(CCN)CCC(=O)N(C)[C@@H]1C(=O)N[C@@H](C)C(=O)N[C@H](C(=O)NCC#N)Cc2ccc(OCCN)c(c2)-c2cc1ccc2OCCN [Compound 452] |  | 2 (≈ 2.53 µM) |  |  |  |  | 0.19 (≈ 0.24 µM) | 64 (≈ 80.8 µM) |
| C[C@@H]1NC(=O)[C@@H](N(C)C(=O)[C@H](CCN)NC(=O)c2ccc(OCC(C)(C)C)c3ccccc23)c2ccc(OCCN)c(c2)-c2cc(ccc2OCCN)C[C@@H](C(=O)NCC#N)NC1=O [Compound 296] | 0.047 (≈ 0.0535 µM) | 0.031 (≈ 0.0353 µM) | 2 (≈ 2.28 µM) |  |  |  |  |  |
| CCCCCCc1ccc(C(=O)N[C@@H](CCNC=N)C(=O)N(C)[C@@H]2C(=O)N[C@@H](C)C(=O)N[C@H](C(=O)NCC#N)Cc3ccc(O)c(c3)-c3cc2ccc3O)c(C)c1 [Compound 467] |  | 1 (≈ 1.28 µM) |  |  |  |  | 1 (≈ 1.28 µM) | > 64 |
| Cc1cc(OCC2CCC(F)(F)CC2)ccc1C(=O)N[C@@H](CCN)C(=O)N(C)[C@@H]1C(=O)N[C@@H](C)C(=O)N[C@H](C(=O)NCC#N)Cc2ccc(OCCN)c(c2)-c2cc1ccc2OCCN [Compound 278] | 0.5 (≈ 0.553 µM) | 0.13 (≈ 0.144 µM) | 4 (≈ 4.42 µM) |  |  |  |  |  |
| Cc1cc(-c2ccc(CC(C)C)cn2)ccc1C(=O)N[C@@H](CCN)C(=O)N(C)[C@@H]1C(=O)N[C@@H](C)C(=O)N[C@H](C(=O)NCC#N)Cc2ccc(OCCN)c(c2)-c2cc1ccc2OCCN [Compound 173] | 0.094 (≈ 0.106 µM) | 0.016 (≈ 0.018 µM) | 0.31 (≈ 0.349 µM) |  |  |  |  |  |
| Cc1cc(-c2ccc(CC(C)C)cc2)ccc1C(=O)N[C@@H](CCC(N)=O)C(=O)N(C)[C@@H]1C(=O)N[C@@H](C)C(=O)N[C@H](C(=O)NCC#N)Cc2ccc(OCCN)c(c2)-c2cc1ccc2OCCN [Compound 248] | 0.19 (≈ 0.207 µM) | 0.094 (≈ 0.103 µM) | 1 (≈ 1.09 µM) |  |  |  |  |  |
| CCCCCCCCCC(=O)N[C@@H](CCNC(C)=O)C(=O)N[C@@H](CCN)C(=O)N(C)[C@@H]1C(=O)N[C@@H](C)C(=O)N[C@H](C(=O)NCC#N)Cc2ccc(OCCN)c(c2)-c2cc1ccc2OCCN [Compound 386] |  | 0.5 (≈ 0.535 µM) |  |  |  |  | 0.38 (≈ 0.407 µM) | 64 (≈ 68.5 µM) |
| CCCCCCCCCC(=O)N[C@H](CO)C(=O)N1CC(N)C[C@H]1C(=O)N(C)[C@@H]1C(=O)N[C@@H](C)C(=O)N[C@H](C(=O)NCC#N)Cc2ccc(OCCN)c(c2)-c2cc1ccc2OCCN (some centres unmarked) [Compound 524-1] |  | 0.19 (≈ 0.213 µM) |  |  |  |  | 0.22 (≈ 0.247 µM) | 16 (≈ 18 µM) |
| CCCCCCCCCC(=O)N[C@H](C)C(=O)NCCC(=O)N[C@@H](CCN)C(=O)N(C)[C@@H]1C(=O)N[C@@H](C)C(=O)N[C@H](C(=O)NCC#N)Cc2ccc(OCCN)c(c2)-c2cc1ccc2OCCN [Compound 365] | 0.38 (≈ 0.407 µM) | 0.5 (≈ 0.535 µM) | 64 (≈ 68.5 µM) |  |  |  |  |  |
| CCCCCCc1ccc(C(=O)N[C@@H](CCN[C@@H]2[C@@H](O)[C@H](O)[C@@H](CO)O[C@@H]2O)C(=O)N(C)[C@@H]2C(=O)N[C@@H](C)C(=O)N[C@H](C(=O)NCC#N)Cc3ccc(OCCN)c(c3)-c3cc2ccc3OCCN)c(C)c1 [Compound 518] |  | 0.063 (≈ 0.0629 µM) |  |  |  |  | 0.38 (≈ 0.379 µM) | 4 (≈ 3.99 µM) |
| Cc1cc(-n2cc(C#CC(C)C)cn2)ccc1C(=O)N[C@@H](CCN)C(=O)N(C)[C@@H]1C(=O)N[C@@H](C)C(=O)N[C@H](C(=O)NCC#N)Cc2ccc(OCCN)c(c2)-c2cc1ccc2OCCN [Compound 446] | 0.063 (≈ 0.0709 µM) | 0.012 (≈ 0.0135 µM) | 0.5 (≈ 0.563 µM) |  |  |  |  |  |
| CCCCCCCCCC(=O)N[C@@H](CCC(N)=O)C(=O)N[C@@H](CCN)C(=O)N(C)[C@@H]1C(=O)N[C@@H](C)C(=O)N[C@H](C(=O)NCC#N)Cc2ccc(OCCN)c(c2)-c2cc1ccc2OCCN [Compound 385] |  | 0.5 (≈ 0.543 µM) |  |  |  |  | 0.25 (≈ 0.272 µM) | 32 (≈ 34.8 µM) |
| CCCCc1ccc(C(=O)N[C@@H](CCCCN)CC(=O)N(C)[C@@H]2C(=O)N[C@@H](C)C(=O)N[C@H](C(=O)NCC#N)Cc3ccc(OCCN)c(c3)-c3cc2ccc3OCCN)c(C)c1 [Compound 509] | 3 (≈ 3.51 µM) | > 4 | > 64 |  |  |  |  |  |
| Cc1nc(C#CC2CCCCC2)ncc1C(=O)N[C@@H](CCN)C(=O)N(C)[C@@H]1C(=O)N[C@@H](C)C(=O)N[C@H](C(=O)NCC#N)Cc2ccc(OCCN)c(c2)-c2cc1ccc2OCCN [Compound 312] | 0.25 (≈ 0.289 µM) | 0.023 (≈ 0.0266 µM) | 0.5 (≈ 0.579 µM) |  |  |  |  |  |
| CCCCCCCCCC(=O)N[C@@H](CO)C(=O)N(C)[C@@H](CCN)C(=O)N(C)[C@@H]1C(=O)N[C@@H](C)C(=O)N[C@H](C(=O)NCC#N)Cc2ccc(OCCN)c(c2)-c2cc1ccc2OCCN [Compound 399] |  | 0.19 (≈ 0.213 µM) |  |  |  |  | 0.25 (≈ 0.28 µM) | 16 (≈ 17.9 µM) |
| C[C@@H]1NC(=O)[C@@H](N(C)C(=O)[C@H](CCN)NC(=O)c2cccc3ccccc23)c2ccc(OCCN)c(c2)-c2cc(ccc2OCCN)C[C@@H](C(=O)NCC#N)NC1=O [Compound 492] | 2 (≈ 2.53 µM) |  |  | 3 (≈ 3.79 µM) |  |  |  |  |

Reference: US20180327367A1, “MACROCYCLIC BROAD SPECTRUM ANTIBIOTICS” (priority 2015, published 2018)
